According to US20250064807A1, “Promoting Hair Growth and Treatment of Hair Loss or Excessive Hair Shedding” (Samson Clinical Pty Ltd, priority 2017, published 2025):
“And” between values parts separate entries of the source, which are not always exact repeats. Identical values can stand only once. “Also recorded” adds a separate entry of the source. Like-named read-outs stand apart in the source and are kept apart here.

Experiments:
[1] = Assessment of sublingual minoxidil on patient blood pressure (Example 5); settings: 2.5 mg sublingual troche, 5 individuals, monitored 6 hours post administration
[2] = Minoxidil serum levels after a single sublingual dose (Example 7); settings: for minoxidil in the serum after 2 hours: single sublingual dose 0.45 mg
[3] = for minoxidil in serum samples at steady state: 0.45 mg sublingually daily for a minimum of 6 weeks
Experimental: (§1) Hair counts were performed on dermatoscopic images taken at baseline and after 6 weeks. […] Steady state serum levels were measured after 8 weeks of daily dosing. 13 patients had hair counts performed.

[4] = test system: men and women with AGA; test: Hair regrowth by macrophotography hair counts and global photography (Example 7); format: in vivo, human
Experimental: Hair counts were performed on dermatoscopic images taken at baseline and after 6 weeks. […] Steady state serum levels were measured after 8 weeks of daily dosing.

[5] = test system: men with MPHL; settings: cited from earlier work
[6] = test system: women; test: Hair count after 12 weeks of daily sublingual minoxidil troche (Example 6); format: in vivo, human; settings: individual patients 1-3, listed as sublingual minoxidil
[7] = cited from earlier work; for mean serum concentration after topical application: scalp, twice daily; for peak serum concentration: one hour post-dose
[8] = for blood pressure after first dose / at time of peak concentration: single sublingual dose 0.45 mg; for adverse events / side effects: sublingual minoxidil 0.45 mg, b166: 30 patients, 2 to 12 months
Experimental: as §1

[9] = cited from earlier work
[10] = test system: patients with FPHL or MPHL; test: Randomized double-blind study of 0.45 mg sublingual minoxidil, week 8 interim hair assessments (Example 8); format: in vivo, human
Experimental: Participants receive study medication for 24 weeks followed by a follow-up visit 4 weeks later.
The aim is to enroll 40 participants.
Number of participants completed Week 8: 12 (2 females, 10 males). […] This timepoint represents a third of the planned treatment period for the study (24 weeks). Data from these 12 participants have been analysed at the 8 week mark. Analysis was performed blind as the study is still ongoing.
The minimum criteria for hair loss severity in female participants is a Grade 2 and maximum is Grade 5. ISA at Screening was Sinclair Scale 2 and 3 for each female participant. […] As the study is ongoing and medication blind still stands, the final outcome of change in hair density (at Week 24) cannot be concluded in this report. The minimum criteria for enrolment for male participants is Grade III-Vertex and maximum is VI.
Standardized global photography are taken at Study Weeks 0 (prior to dispensing of medication) and 8. Subsequent Week 16, 24 and 28 visits will also include global photography. A vertex and frontal scalp photograph is taken from a fixed height with a dedicated SLR camera. Current collated global photographs for all 12 patients were assessed by a blinded assessor. Comparison photographs between Baseline and Week 8 was provided to the designated blinded assessor.
Initial assessment of Dermatology Life Quality Index (DLQI) for males and Women's AGA Quality of Life Questionnaire (WAA-QOL): Responses by female participants was generally more negative corresponding to a higher score at both Baseline and Week 8 visits. The impact on Quality of Life was more pronounced in comparison to the male participants. […] A full score of 38 represented dissatisfaction with current hair growth. The mean score was 25 (SD: 2.19) at Week 0 and 24.7 (SD: 4.08) at Week 8. The median score from all 10 male participants was 24.5 and 25 respectively. Both female patients reported an average of Grade 3 with the Sinclair Scale (FIG. 1 above) at Baseline visit and subsequent Week 8 visit. This was consistent with the Investigator's grade of their hair loss severity.

[11] = test system: women aged 20-68 with Sinclair stages 2-5 FPHL; test: Head to head study topical 5% minoxidil once daily vs oral minoxidil 1 mg daily, 24 weeks (data on file); format: in vivo, human; settings: for additional hairs on scalp from increase in hair density: scalp area 630 cm^2; for mean increase in terminal hair count: 24 weeks
[12] = Stability and beyond use of minoxidil and compounded dosage forms; format: physicochemical; settings: 110° C. for 30 minutes
[13] = 0.45 mg sublingually daily, minimum 6 weeks, 13 patients
[14] = 0.45 mg sublingually once daily
[15] = 0.25 mg sublingual troche daily, 12 weeks
[16] = 0.25 mg sublingual troche daily
[17] = 30 patients, sublingual minoxidil for between 2 and 12 months
[18] = Baseline vs Week 8, blinded assessor, blind not broken

respiratory rate and tympanic temperature (12 participants): within normal range
minoxidil in the serum after 2 hours ([2]; listed as sublingual minoxidil): no detectable minoxidil
circulating minoxidil after 1 hour ([2]; sublingual dosing): undetectable
minoxidil in serum samples at steady state [3]: No minoxidil was detected
minoxidil in serum samples at steady state ([3]; listed as sublingual minoxidil): not detected
accumulation with continuous dosing ([3]; continuous sublingual dosing): does not accumulate
biochemical abnormality [8, 17]: No biochemical abnormality was detected
thermal stability [12]: stable
Compound: Nc1cc(N2CCCCC2)nc(N)[n+]1[O-] [minoxidil, 2,4-Diamino-6-piperidinopyrimidine 3-oxide]
adverse symptoms, postural hypotension or change in blood pressure [1]: No adverse symptoms, postural hypotension or change in blood pressure was noted
adverse events at Week 8 visit (0.45 mg sublingual once daily, 12 participants, blind not broken): No significant adverse events
blood pressure readings, day of randomization vs Week 8 (12 participants): not significant
safety blood profile (Week 8, 12 participants): within the normal range
minoxidil in the serum after 2 hours [2]: no detectable minoxidil; also recorded: undetectable
change in hair counts on frontal and vertex areas, all patients ([4]; 0.45 mg sublingually daily, 6 weeks, 13 patients): increased terminal hairs; also recorded: increase in hair counts
hair density, clinic assessment ([4]; 0.45 mg sublingually daily, minimum 6 weeks, 2 patients): moderate increase (+2)
mean increase in frontal scalp terminal hairs [4, 13]: 69.13 hairs/cm^2
mean increase in vertex scalp terminal hairs [4, 13]: 97.38 hairs/cm^2
range of increase in frontal scalp terminal hairs [4, 13]: 4-133 hairs/cm^2
range of increase in vertex scalp terminal hairs [4, 13]: 31-253 hairs/cm^2
hair regrowth compared with topical or oral minoxidil [4, 14]: greater and detected earlier
increase from baseline in hair count on the vertex scalp [4, 14]: 52.5%
increase from baseline in hair count over the frontal scalp [4, 14]: 36.5%
hair regrowth compared with topical or oral minoxidil ([4]; 0.45 mg sublingually once daily, listed as sublingual minoxidil): grows more hair
midline hair density, blinded assessment of global photography ([4]; 0.45 mg sublingually, 8 weeks, 5 of the patients): slight increase
scalp global photographs at 6 weeks ([4]; 0.45 mg sublingually, all patients): either mild or moderate improvement
men with MPHL with arrest of hair loss or mild to moderate hair regrowth ([5]; applied topically): approximately 60%
average increase in hair count ([5]; topical, 5% concentration, 12 months): 12.3%
terminal hair count at 12 weeks (figure legend) [6, 15]: 123 and 186 and 71
vellus hair count at 12 weeks [6, 15]: 6 and 13
total hair count at 12 weeks ([6]; 0.25 mg sublingual troche daily, 12 weeks, scalp section): 129 and 199 and 84
increase in total hair count from baseline to 12 weeks [6, 16]: 21 hairs and 32 hairs and 23 hairs
percent increase in total hair count from baseline to 12 weeks [6, 16]: 19.4% and 19.2% and 37.7%
Hair Count at week 12 ([6]; Table 1, terminal hairs, 0.25 mg sublingual troche daily): 71 and 123 and 186
Percentage increase ([6]; Table 1, week 12 vs baseline terminal hair count): 42% and 23% and 23.2%
mean serum concentration after topical application ([7]; 2% minoxidil (20 mg/ml)): 0.7 ng/mL
mean serum concentration after topical application ([7]; 5% minoxidil (50 mg/ml)): 1.8 ng/mL
absorption through the gastrointestinal tract ([7]; in vivo, po): > 90%
peak serum concentration ([7]; oral dose 2.5 mg): 18.5 ng/mL
peak serum concentration ([7]; oral dose 5 mg): 41 ng/mL
highest serum level recorded ([7]; topical application): 18.2 ng/mL
hypertrichosis, tachycardia, fluid retention or postural hypotension [8, 17]: No patient developed hypertrichosis, tachycardia, fluid retention or postural hypotension
mean blood pressure [8, 17]: no reduction
blood pressure after first dose / at time of peak concentration [8]: unaffected
blood pressure after first dose / at time of peak concentration ([8]; listed as sublingual minoxidil): no change
adverse events / side effects [8]: No adverse events were noted
adverse events / side effects ([8]; listed as sublingual minoxidil): No side effects were reported
effect on blood pressure in hypertensive patients ([9]; oral, 5 to 100 mg daily): profound reduction in blood pressure
effect on blood pressure of normotensive individuals ([9]; oral, 5 to 100 mg daily): minimal effect
effect on blood pressure or pulse rate ([9]; topical): minimal effect
serum concentration threshold for any hemodynamic response ([9]; twelve hour steady state intravenous infusions (Ferry et al., 1996)): 20 ng/mL
Investigator scalp assessment, Sinclair Scale, change at Week 8 ([10]; 0.45 mg sublingual once daily, individual female participants, blind not broken, listed as sublingual minoxidil): slight increase from grade 3 to 2; also recorded: no change
Men's Hair Growth Questionnaire median score at Week 8 ([10]; 10 male participants): 25
Men's Hair Growth Questionnaire scores, Week 0 vs Week 8 ([10]; 10 male participants): No significant difference
Men's Hair Growth Questionnaire mean score at Week 8 ([10]; 10 male participants, full score 38 = dissatisfaction): 24.7 (SD: 4.08)
participants (of 12) whose assessment suggests a slight to moderate increase in hair density [10, 18]: Eight
participants (of 12) whose global photography suggests a decrease in hair density [10, 18]: 2 participants
patient reported Sinclair Scale grade at Week 8 (average) ([10]; both female patients, same at Baseline): 3 Grade
additional hairs on scalp from increase in hair density ([11]; 7 hair/cm^2 increase (topical group)): 4600 hairs
additional hairs on scalp from increase in hair density ([11]; 27 hair/cm^2 increase (oral group)): 17,000 hairs
mean increase in terminal hair count ([11]; oral minoxidil 1 mg daily): 27 /cm^2
mean increase in terminal hair count ([11]; topical 5% minoxidil once daily): 7 /cm^2
